# Legend:
# [1] = Aqueous solubility in four aqueous buffers with distinct pH values; format: physicochemical; conditions: for solubility at 15 min / solubility at 1 h: thermodynamic from solid; for Solubility in aqueous solutions (in words): summary of the four buffers
# Experimental: The solubility properties of the generated solid states were studied in four different aqueous buffers with distinct pH values. Approximately 250 mg of each sample was mixed with 2.5 ml solvent and stirred.
# [2] = Hygroscopicity by Dynamic Vapor Sorption Analysis (DVS); format: physicochemical; conditions: for Changes of the crystalline form associated with water uptake / Reversibility of water uptake / weight increase / Humidity absorption (in words) / Weight increase (hygroscopicity): DVS; for Humidity absorption (in words): 0 to 95% RH; for Weight increase (hygroscopicity): humidity 0 to 95% RH, maximum
# Experimental: The hygroscopicity was determined by Dynamic Vapor Sorption Analysis (DVS). Approximately 200 mg of each solid state were weight on a sample plate and subjected to the apparatus. The humidity inside was varied in a range from 0 to 95% RH and the mass change (dm [%]) of the samples measured continuously.
# [3] = phase I trials; dose levels up to 200 mg; without clinically significant abnormal results; cited from earlier work
# HIV = conditions: preclinical; lasted for several weeks after cessation of treatment; cited from earlier work
# normal cellular splicing = conditions: cited from earlier work
# HIV-1 replication = conditions: prevents export of viral RNA from nucleus to cytoplasm in infected cells; cited from earlier work
# [4] = aqueous buffer, fassif, FaSSiF (SIF-powder), 15 min
# [5] = aqueous buffer, fassif, FaSSiF (SIF-powder), 1 h
# [6] = aqueous buffer, pH 2.2, simulated gastric fluid, 0.01N HCl pH ~2.2, 15 min
# [7] = aqueous buffer, pH 2.2, simulated gastric fluid, 0.01N HCl pH ~2.2, 1 h
# [8] = aqueous buffer, pH 4.5, aqueous buffer, 20 mM Na-acetate pH 4.5, 15 min
# [9] = aqueous buffer, pH 4.5, aqueous buffer, 20 mM Na-acetate pH 4.5, 1 h
# [10] = aqueous buffer, pH 6.8, aqueous buffer, 50 mM KH2PO4 pH 6.8, 15 min
# [11] = aqueous buffer, pH 6.8, aqueous buffer, 50 mM KH2PO4 pH 6.8, 1 h
Compound,"solubility at 15 min [1, 4] [µg/mL]","solubility at 1 h [1, 5] [µg/mL]","solubility at 15 min [1, 6] [µg/mL]","solubility at 1 h [1, 7] [µg/mL]","solubility at 15 min [1, 8] [µg/mL]","solubility at 1 h [1, 9] [µg/mL]","solubility at 15 min [1, 10] [µg/mL]","solubility at 1 h [1, 11] [µg/mL]",Solubility in aqueous solutions (in words) [1],Changes of the crystalline form associated with water uptake [2],Reversibility of water uptake / weight increase [2],Relative weight change (dm) ([2]; RH 40% (start)) [%],Relative weight change (dm) ([2]; RH 40 → 0% (first step to 0)) [%],Relative weight change (dm) ([2]; RH 95 → 40% (desorption)) [%],Relative weight change (dm) ([2]; RH → 0% (second step to 0)) [%],Relative weight change (dm) ([2]; RH → 35% (final step)) [%],Relative weight change (dm) ([2]; RH → 75%) [%],Relative weight change (dm) ([2]; RH → 95%) [%],"Solubility ([1]; 0.01N HCl pH ~2.2, 15 min) [µg/mL]",Humidity absorption (in words) [2],further results
"Cc1ccc(S(=O)(=O)O)cc1.FC(F)(F)Oc1ccc(Nc2ccc3cccc(Cl)c3n2)cc1 [tosylate, (8-chloro-quinolin-2-yl)-(4-trifluoromethoxyphenyl)-amine]",30,13,6,10,–,3,–,–,–,–,–,0,−0.05,−0.03,−0.09,−0.05,0.05,0.24,–,absorbs more or less not any humidity,–
"FC(F)(F)Oc1ccc(Nc2ccc3cccc(Cl)c3n2)cc1.O=S(=O)(O)O [H2SO4, (8-chloro-quinolin-2-yl)-(4-trifluoromethoxyphenyl)-amine]",–,–,–,–,–,–,–,–,first-rate solubility,–,reversible,0,−0.11,0.03,−0.14,−0.04,0.32,3.2,–,low hygroscopicity,"solubility at 15 min ([1]; aqueous buffer, 20 mM Na-acetate pH 4.5, 15 min): 93 µg/mL; solubility at 1 h ([1]; aqueous buffer, 20 mM Na-acetate pH 4.5, 1 h): 139 µg/mL; solubility at 15 min ([1]; aqueous buffer, 50 mM KH2PO4 pH 6.8, 15 min): 35 µg/mL; solubility at 1 h ([1]; aqueous buffer, 50 mM KH2PO4 pH 6.8, 1 h): 114 µg/mL; solubility at 15 min ([1]; simulated gastric fluid, 0.01N HCl pH ~2.2, 15 min): 89 µg/mL; solubility at 1 h ([1]; simulated gastric fluid, 0.01N HCl pH ~2.2, 1 h): 152 µg/mL; solubility at 15 min ([1]; FaSSiF (SIF-powder), 15 min): 109 µg/mL; solubility at 1 h ([1]; FaSSiF (SIF-powder), 1 h): 157 µg/mL; Weight increase (hygroscopicity) [2]: ≤ 3.2%"
"FC(F)(F)Oc1ccc(Nc2ccc3cccc(Cl)c3n2)cc1.O=S(=O)(O)c1ccccc1 [besylate, (8-chloro-quinolin-2-yl)-(4-trifluoromethoxyphenyl)-amine]",77,45,23,32,24,16,3,7,–,only minor,reversible,0,−0.04,1.1,−0.09,1.0,0.19,1.9,–,low hygroscopicity,Weight increase (hygroscopicity) [2]: up to 1.9%

# Now from value to compound, other results behind:
"solubility at 15 min [1, 4] [µg/mL]","solubility at 1 h [1, 5] [µg/mL]","solubility at 15 min [1, 6] [µg/mL]","solubility at 1 h [1, 7] [µg/mL]","solubility at 15 min [1, 8] [µg/mL]","solubility at 1 h [1, 9] [µg/mL]","solubility at 15 min [1, 10] [µg/mL]","solubility at 1 h [1, 11] [µg/mL]",Solubility in aqueous solutions (in words) [1],Changes of the crystalline form associated with water uptake [2],Reversibility of water uptake / weight increase [2],Relative weight change (dm) ([2]; RH 40% (start)) [%],Relative weight change (dm) ([2]; RH 40 → 0% (first step to 0)) [%],Relative weight change (dm) ([2]; RH 95 → 40% (desorption)) [%],Relative weight change (dm) ([2]; RH → 0% (second step to 0)) [%],Relative weight change (dm) ([2]; RH → 35% (final step)) [%],Relative weight change (dm) ([2]; RH → 75%) [%],Relative weight change (dm) ([2]; RH → 95%) [%],"Solubility ([1]; 0.01N HCl pH ~2.2, 15 min) [µg/mL]",Humidity absorption (in words) [2],Compound,further results
111,198,116,147,74,136,68,104,first-rate solubility,significant changes,irreversible,0,−0.11,7.8,2.8,5.1,1.7,14.3,–,–,"Cl.FC(F)(F)Oc1ccc(Nc2ccc3cccc(Cl)c3n2)cc1 [HCl, (8-chloro-quinolin-2-yl)-(4-trifluoromethoxyphenyl)-amine]",–
–,–,–,–,48,50,18,23,–,significant changes,irreversible,0,–,–,–,–,–,–,75,–,"FC(F)(F)Oc1ccc(Nc2ccc3cccc(Cl)c3n2)cc1 [hemi-edisylate, (8-chloro-quinolin-2-yl)-(4-trifluoromethoxyphenyl)-amine]","Solubility ([1]; 0.01N HCl pH ~2.2, 1 h): 65 µg/mL; Relative weight change (dm) ([2]; RH 40 → 0% (first step to 0), listed as Hemiedisylate salt): −0.65%; Relative weight change (dm) ([2]; RH 95 → 40% (desorption), listed as Hemiedisylate salt): 3.5%; Relative weight change (dm) ([2]; RH → 0% (second step to 0), listed as Hemiedisylate salt): 0.4%; Relative weight change (dm) ([2]; RH → 35% (final step), listed as Hemiedisylate salt): 2.9%; Relative weight change (dm) ([2]; RH → 75%, listed as Hemiedisylate salt): 0.74%; Relative weight change (dm) ([2]; RH → 95%, listed as Hemiedisylate salt): 36.2%"
64,61,–,–,–,–,–,–,–,–,–,0,0,0.03,0.02,0.02,0.02,0.15,3,absorbs more or less not any humidity,"FC(F)(F)Oc1ccc(Nc2ccc3cccc(Cl)c3n2)cc1 [free base, (8-chloro-quinolin-2-yl)-(4-trifluoromethoxy-phenyl)-amine]","Solubility ([1]; 0.01N HCl pH ~2.2, 1 h): 4 µg/mL; Solubility in aqueous solutions with different pH-values ([1]; compound from reworked WO 2010/143169 procedure, recrystallized, pH values simulating physiological conditions): virtual insolubility; Tolerability [3]: well tolerated; Reduction of viral load (HIV): sustained reduction of viral load; Selectivity / effect on normal cellular splicing (normal cellular splicing): doesn't affect normal cellular splicing; HIV replication (HIV-1 replication): inhibits HIV replication"
